From paper PMC11951083, “Highly Specific Miniaturized Fluorescent Monoacylglycerol Lipase Probes Enable Translational Research” (Journal of the American Chemical Society, 2025)

Legend:
GSK3alpha (h) = GSK3alpha (h) (Homo sapiens, UniProt P49840); assay: GSK3alpha (h); conditions: read-out: Inhibition GSK3alpha (h)
FP (h) = FP (h) (Homo sapiens, UniProt P43088); assay: FP (h) (agonist radioligand); conditions: read-out: Inhibition FP (h) (agonist radioligand)
M1 (h) = target: T1, M1 (h) (Homo sapiens, UniProt P11229); assay: M1 (h) (antagonist radioligand); conditions: read-out: Inhibition M1 (h) (antagonist radioligand)
T1 sequence (P11229 1-460): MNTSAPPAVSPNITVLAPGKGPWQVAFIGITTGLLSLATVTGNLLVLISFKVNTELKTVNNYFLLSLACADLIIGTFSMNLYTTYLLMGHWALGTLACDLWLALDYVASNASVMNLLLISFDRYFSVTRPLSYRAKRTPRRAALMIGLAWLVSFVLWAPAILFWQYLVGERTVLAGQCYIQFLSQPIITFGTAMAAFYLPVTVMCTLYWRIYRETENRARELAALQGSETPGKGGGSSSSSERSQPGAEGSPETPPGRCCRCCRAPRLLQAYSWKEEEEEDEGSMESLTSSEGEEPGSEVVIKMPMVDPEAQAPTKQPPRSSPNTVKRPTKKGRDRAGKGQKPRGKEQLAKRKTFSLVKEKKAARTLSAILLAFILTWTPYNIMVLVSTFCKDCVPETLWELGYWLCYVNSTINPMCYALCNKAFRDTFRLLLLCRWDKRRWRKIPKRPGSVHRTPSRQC

H2 (h) = H2 (h) (Homo sapiens, UniProt P25021); assay: H2 (h) (antagonist radioligand); conditions: read-out: Inhibition H2 (h) (antagonist radioligand)
AT1 (h) = target: T2, AT1 (h) (Homo sapiens, UniProt P30556); assay: AT1 (h) (antagonist radioligand); conditions: read-out: Inhibition AT1 (h) (antagonist radioligand)
T2 sequence (P30556 1-359): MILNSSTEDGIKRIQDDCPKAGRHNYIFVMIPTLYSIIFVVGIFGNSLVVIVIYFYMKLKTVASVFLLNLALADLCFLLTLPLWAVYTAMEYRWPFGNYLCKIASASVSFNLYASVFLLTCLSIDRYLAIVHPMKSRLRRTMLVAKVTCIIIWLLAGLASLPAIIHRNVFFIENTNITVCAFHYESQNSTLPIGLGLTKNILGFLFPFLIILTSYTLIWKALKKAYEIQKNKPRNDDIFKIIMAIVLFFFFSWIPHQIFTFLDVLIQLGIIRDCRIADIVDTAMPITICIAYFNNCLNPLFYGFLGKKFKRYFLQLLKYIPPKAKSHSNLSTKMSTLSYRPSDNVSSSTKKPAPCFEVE

5-HT2B (h) = 5-HT2B (h) (Homo sapiens, UniProt P41595); assay: 5-HT2B (h) (agonist radioligand); conditions: read-out: Inhibition 5-HT2B (h) (agonist radioligand)
mu (MOP) (h) = mu (MOP) (h) (Homo sapiens, UniProt P35372); assay: mu (MOP) (h) (agonist radioligand); conditions: read-out: Inhibition mu (MOP) (h) (agonist radioligand)
5-HT3 (h) = target: T3, 5-HT3 (h) (Homo sapiens, UniProt P46098); assay: 5-HT3 (h) (antagonist radioligand); conditions: read-out: Inhibition 5-HT3 (h) (antagonist radioligand)
T3 sequence (P46098 24-478): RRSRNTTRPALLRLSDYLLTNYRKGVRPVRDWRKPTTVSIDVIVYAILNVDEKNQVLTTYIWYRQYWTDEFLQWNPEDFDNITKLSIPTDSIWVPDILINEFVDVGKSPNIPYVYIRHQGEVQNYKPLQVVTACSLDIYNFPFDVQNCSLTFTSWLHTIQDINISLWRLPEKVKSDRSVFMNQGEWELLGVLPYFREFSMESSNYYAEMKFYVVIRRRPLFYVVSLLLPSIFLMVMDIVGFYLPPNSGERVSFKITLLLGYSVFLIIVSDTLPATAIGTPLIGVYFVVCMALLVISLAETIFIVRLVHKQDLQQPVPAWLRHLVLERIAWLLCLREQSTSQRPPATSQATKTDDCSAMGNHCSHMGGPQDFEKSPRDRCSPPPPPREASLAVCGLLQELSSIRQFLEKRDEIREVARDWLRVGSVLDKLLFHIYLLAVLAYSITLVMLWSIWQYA

[1] = test system: 50 clinically relevant and safety-related off-targets; assay: CEREP panel of 50 off-targets (overall); conditions: for selectivity profile in off-target panel: 10 μM, panel of 50 unrelated off-target receptors and enzymes; for S(90): fraction of targets with more than 90% inhibition at 10 µM; for S(50): fraction of targets with more than 50% inhibition at 10 µM
[2] = target: xanthine oxidase/ superoxide O2- scavenging (Bos taurus, UniProt P80457); assay: xanthine oxidase/ superoxide O2- scavenging; conditions: read-out: Inhibition xanthine oxidase/ superoxide O2- scavenging
[3] = target: T4, MAO-A (h) monoamine oxydase A (Homo sapiens, UniProt P21397); assay: MAO-A (h) monoamine oxydase A, enzymatic assay; conditions: read-out: Inhibition MAO-A (h) monoamine oxydase A, enzymatic assay
T4 sequence (P21397 1-527): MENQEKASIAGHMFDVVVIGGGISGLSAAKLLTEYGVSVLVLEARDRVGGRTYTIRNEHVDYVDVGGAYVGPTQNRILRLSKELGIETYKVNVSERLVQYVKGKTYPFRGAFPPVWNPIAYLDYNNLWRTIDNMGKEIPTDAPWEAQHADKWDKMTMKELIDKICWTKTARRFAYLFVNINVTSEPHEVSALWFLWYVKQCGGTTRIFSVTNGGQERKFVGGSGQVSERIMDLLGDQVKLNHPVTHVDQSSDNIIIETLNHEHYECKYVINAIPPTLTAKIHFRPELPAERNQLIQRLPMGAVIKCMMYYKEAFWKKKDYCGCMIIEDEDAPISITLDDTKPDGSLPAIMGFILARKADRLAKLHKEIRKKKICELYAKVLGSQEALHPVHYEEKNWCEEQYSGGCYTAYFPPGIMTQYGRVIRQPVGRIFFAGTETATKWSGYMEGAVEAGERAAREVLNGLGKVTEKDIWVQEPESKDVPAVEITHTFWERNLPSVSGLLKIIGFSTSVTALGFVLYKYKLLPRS

MMP-9 (h) = MMP-9 (h) (Homo sapiens, UniProt P14780); assay: MMP-9 (h); conditions: read-out: Inhibition MMP-9 (h)
MMP-9 (h), sequence (P14780 94-707): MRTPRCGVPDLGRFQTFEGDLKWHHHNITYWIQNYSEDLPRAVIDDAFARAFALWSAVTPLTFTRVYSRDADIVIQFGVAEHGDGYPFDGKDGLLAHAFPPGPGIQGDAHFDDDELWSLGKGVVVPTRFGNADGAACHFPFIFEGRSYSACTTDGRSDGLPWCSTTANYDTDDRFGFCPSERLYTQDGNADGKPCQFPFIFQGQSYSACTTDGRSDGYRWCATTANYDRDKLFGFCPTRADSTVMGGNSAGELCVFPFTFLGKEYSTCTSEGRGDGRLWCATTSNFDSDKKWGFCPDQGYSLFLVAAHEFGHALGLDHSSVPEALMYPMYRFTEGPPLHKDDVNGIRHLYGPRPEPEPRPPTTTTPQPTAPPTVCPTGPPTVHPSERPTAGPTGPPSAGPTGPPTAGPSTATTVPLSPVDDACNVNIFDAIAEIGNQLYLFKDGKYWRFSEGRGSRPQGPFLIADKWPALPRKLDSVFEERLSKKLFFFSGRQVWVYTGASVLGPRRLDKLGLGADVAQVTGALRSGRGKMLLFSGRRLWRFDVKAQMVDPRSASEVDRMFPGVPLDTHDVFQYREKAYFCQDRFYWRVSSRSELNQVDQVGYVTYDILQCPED

FP (h), sequence (P43088 whole entry): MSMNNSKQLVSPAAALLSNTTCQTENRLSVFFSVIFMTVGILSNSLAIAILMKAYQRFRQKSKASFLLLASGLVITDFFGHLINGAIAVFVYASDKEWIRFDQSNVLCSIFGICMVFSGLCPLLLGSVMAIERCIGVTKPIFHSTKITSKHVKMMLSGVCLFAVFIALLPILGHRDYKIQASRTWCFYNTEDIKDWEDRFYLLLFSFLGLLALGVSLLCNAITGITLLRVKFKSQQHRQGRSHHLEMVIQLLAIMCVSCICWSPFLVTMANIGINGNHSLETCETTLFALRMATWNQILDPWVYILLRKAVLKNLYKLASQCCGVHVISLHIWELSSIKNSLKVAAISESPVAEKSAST
H2 (h), sequence (P25021 whole entry): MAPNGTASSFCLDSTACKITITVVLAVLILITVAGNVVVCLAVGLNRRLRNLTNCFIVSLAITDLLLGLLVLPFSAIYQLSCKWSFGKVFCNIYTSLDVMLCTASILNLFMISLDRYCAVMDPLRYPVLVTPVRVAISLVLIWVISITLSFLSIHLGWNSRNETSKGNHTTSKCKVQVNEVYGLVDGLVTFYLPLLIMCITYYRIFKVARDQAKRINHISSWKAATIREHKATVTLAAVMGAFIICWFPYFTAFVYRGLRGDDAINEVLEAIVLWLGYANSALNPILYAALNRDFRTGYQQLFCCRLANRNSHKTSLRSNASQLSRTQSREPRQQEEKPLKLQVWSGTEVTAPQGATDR
5-HT2B (h), sequence (P41595 whole entry): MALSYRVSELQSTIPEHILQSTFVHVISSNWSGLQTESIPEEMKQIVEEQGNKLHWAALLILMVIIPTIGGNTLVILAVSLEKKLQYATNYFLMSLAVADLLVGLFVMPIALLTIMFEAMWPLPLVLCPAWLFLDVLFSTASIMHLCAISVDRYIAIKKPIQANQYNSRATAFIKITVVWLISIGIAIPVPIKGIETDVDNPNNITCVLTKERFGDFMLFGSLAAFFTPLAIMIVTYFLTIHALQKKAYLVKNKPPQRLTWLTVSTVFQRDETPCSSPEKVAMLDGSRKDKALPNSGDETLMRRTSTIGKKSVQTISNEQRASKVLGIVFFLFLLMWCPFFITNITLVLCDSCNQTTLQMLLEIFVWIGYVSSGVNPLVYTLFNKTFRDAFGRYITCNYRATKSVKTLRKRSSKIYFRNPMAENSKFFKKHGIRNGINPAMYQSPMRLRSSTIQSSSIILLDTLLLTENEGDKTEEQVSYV
mu (MOP) (h), sequence (P35372 whole entry): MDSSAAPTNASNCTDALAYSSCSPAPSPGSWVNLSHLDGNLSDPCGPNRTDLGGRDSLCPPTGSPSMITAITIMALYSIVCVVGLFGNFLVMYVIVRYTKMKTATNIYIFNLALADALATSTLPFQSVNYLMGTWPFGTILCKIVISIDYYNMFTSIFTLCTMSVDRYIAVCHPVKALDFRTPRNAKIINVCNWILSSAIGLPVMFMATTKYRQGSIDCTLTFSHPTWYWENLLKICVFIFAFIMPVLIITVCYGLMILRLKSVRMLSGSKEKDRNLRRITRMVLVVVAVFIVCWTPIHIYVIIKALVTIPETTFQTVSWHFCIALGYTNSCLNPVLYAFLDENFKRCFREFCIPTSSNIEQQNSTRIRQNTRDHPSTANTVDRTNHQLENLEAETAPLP
xanthine oxidase/ superoxide O2- scavenging, sequence (P80457 whole entry): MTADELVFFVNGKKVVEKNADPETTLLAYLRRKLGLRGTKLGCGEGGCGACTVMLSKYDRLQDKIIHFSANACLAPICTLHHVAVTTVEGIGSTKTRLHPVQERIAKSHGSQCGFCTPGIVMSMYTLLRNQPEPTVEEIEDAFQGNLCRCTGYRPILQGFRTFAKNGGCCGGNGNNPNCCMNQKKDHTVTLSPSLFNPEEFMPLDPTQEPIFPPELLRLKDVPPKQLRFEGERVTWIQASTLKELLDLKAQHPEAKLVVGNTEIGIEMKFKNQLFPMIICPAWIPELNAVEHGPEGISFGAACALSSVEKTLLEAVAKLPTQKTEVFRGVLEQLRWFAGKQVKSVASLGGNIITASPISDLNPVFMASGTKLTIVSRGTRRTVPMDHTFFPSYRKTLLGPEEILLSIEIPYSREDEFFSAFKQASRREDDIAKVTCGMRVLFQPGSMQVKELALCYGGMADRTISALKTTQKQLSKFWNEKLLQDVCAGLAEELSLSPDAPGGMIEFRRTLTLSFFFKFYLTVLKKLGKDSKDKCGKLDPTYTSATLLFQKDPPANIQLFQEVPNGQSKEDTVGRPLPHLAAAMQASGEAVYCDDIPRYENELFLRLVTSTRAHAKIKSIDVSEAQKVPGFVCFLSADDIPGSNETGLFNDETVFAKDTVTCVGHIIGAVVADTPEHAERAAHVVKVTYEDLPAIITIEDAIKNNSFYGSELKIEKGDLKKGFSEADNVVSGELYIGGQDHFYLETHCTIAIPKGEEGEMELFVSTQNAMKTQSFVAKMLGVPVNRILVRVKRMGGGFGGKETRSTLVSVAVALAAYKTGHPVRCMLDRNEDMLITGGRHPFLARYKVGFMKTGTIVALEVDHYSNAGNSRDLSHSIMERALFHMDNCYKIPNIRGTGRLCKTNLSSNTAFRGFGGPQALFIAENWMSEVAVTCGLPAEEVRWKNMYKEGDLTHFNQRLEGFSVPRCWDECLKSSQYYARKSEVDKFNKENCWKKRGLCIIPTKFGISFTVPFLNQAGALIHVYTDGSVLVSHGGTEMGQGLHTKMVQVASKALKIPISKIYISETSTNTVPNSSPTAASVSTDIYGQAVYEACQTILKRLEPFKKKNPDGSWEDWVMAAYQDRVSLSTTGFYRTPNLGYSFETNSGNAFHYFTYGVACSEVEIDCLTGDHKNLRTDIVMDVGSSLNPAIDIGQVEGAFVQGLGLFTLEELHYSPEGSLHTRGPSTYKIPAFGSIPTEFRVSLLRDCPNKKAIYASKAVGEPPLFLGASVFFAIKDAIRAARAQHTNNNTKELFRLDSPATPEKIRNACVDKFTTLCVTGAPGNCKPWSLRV
GSK3alpha (h), sequence (P49840 whole entry): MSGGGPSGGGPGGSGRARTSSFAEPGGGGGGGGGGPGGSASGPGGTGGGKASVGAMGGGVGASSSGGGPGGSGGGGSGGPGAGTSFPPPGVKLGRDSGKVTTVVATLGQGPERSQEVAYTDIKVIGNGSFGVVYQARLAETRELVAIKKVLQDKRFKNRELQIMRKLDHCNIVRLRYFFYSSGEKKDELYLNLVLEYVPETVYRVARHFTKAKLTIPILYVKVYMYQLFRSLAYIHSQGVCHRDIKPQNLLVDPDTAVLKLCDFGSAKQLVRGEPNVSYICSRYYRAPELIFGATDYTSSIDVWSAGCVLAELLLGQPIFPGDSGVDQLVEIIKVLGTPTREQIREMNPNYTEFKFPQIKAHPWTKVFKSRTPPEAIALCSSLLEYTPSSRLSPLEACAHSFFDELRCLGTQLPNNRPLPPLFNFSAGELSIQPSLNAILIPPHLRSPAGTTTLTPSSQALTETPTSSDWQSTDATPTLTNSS

| SMILES | inhibition at 10 µM (GSK3alpha (h)) [%] | inhibition at 10 µM (FP (h)) [%] | inhibition at 10 µM (M1 (h)) [%] | inhibition at 10 µM (H2 (h)) [%] | inhibition at 10 µM (AT1 (h)) [%] | inhibition at 10 µM (5-HT2B (h)) [%] | inhibition at 10 µM (mu (MOP) (h)) [%] | inhibition at 10 µM (5-HT3 (h)) [%] | selectivity profile in off-target panel [1] | S(90) [1] [%] | inhibition at 10 µM [2] [%] | inhibition at 10 µM [3] [%] | inhibition at 10 µM (MMP-9 (h)) [%] | S(50) [1] [%] |
| --- | --- | --- | --- | --- | --- | --- | --- | --- | --- | --- | --- | --- | --- | --- |
| O=C(O[C@H](CO)C(F)(F)F)N1CC2(CC(CC3=C4C=CC=[N+]4[B-](F)(F)n4cccc43)C2)C1 [Compound 1] | 0.3 | 11.6 | 33.5 | -10.7 | -4.3 | 28.3 | 4 | 7.4 | very clean selectivity profile | 0.0 | -29.7 | 22.6 | – | – |
| O=C(OC(C(F)(F)F)C(F)(F)F)N1CC2(CC(CC3=C4C=CC=[N+]4[B-](F)(F)n4cccc43)C2)C1 [Compound 2] | -3.4 | 6.5 | 26 | -18.7 | -1.2 | 4.1 | -0.4 | -5.6 | very clean selectivity profile | 0.0 | 1.8 | -1.3 | 4.5 | 4.0 |
| O=C(OC(C(F)(F)F)C(F)(F)F)N1CC2(CC(CC3=C4C=CC(c5ccc[nH]5)=[N+]4[B-](F)(F)n4cccc43)C2)C1 [Compound 2a] | -5.8 | 4.4 | -0.7 | -48.6 | 2.5 | 20.8 | 7.6 | 4.7 | very clean selectivity profile | 0.0 | 7.8 | -3 | 9.7 | 0.0 |
| O=C1CO[C@H]2CCN(C(=O)N3CC4(CC(CC5=C6C=CC(c7ccc[nH]7)=[N+]6[B-](F)(F)n6cccc65)C4)C3)C[C@H]2N1 [Compound 4a] | -24.8 | 16.3 | 4 | -34.8 | -12.5 | 30.3 | 11 | 1.1 | very clean selectivity profile | 0.0 | 24.1 | 4.3 | 47 | 0.0 |
| O=C(N1CC2(CC(CC3=C4C=CC=[N+]4[B-](F)(F)n4cccc43)C2)C1)N1CC2(CC(n3cnc(C4CC4)n3)C2)C1 [Compound 5] | -1.8 | 10.4 | 14.7 | -1.9 | 11.1 | 0.1 | 8.5 | 1.4 | very clean selectivity profile | 0.0 | -16.6 | 4.4 | 16.8 | – |
